What all share (assay type): in vitro ADME
One experiment has as its target T1, UGT1A4 (Homo sapiens, UniProt P22310).
T1 construct: from tissue; host or cells: human liver microsomes
T1 sequence (P22310 29-534): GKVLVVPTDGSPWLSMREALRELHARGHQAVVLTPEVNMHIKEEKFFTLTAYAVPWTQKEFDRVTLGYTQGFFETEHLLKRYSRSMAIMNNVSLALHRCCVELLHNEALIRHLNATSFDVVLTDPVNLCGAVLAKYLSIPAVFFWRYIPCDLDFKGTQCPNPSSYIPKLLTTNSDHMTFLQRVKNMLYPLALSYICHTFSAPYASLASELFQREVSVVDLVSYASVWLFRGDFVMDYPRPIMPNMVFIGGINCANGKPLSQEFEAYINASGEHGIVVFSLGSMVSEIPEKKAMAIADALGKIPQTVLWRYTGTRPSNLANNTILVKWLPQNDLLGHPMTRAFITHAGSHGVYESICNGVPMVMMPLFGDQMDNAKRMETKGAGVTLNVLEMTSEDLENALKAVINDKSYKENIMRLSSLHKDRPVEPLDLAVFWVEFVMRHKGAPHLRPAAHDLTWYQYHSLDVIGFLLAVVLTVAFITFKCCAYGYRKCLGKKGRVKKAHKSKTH
Nature of the experiment: UGT1A4 inhibition (trifluoperazine glucuronidation) in human liver microsomes, cocktail LC-MS/MS. The method, then: (§1) The inhibitory effects of two selaginellins on the metabolism of six UGT probe substrates were evaluated using previously reported method with minor modification. In brief, HLMs (0.25 mg/mL) were activated by incubation in the presence of alamethicin (25 μg/mL) for 15 min on ice. After the addition of UGT isoform-selective substrates and selaginellins (0, 0.5, 2, 5, 20 and 50 μM) the final concentrations of organic solvent (methanol) for the cocktail incubation conditions were 1.0% (v/v). The incubation reaction mixtures were pre-incubated for 5 min. The reaction was initiated by the addition of 5 mM UDPGA and further incubated for 60 min. All reactions were terminated by adding ice-cold acetonitrile containing estrone glucuronide (IS). After mixing and centrifugation, aliquots were injected into a LC-MS/MS as described previously (Table 2). All microsomal incubations were performed in triplicate.
(§2) The IC50 values (concentration of the inhibitor causing 50% inhibition of the original enzyme activity) were calculated using WinNonlin software (Pharsight, Mountain View, CA, USA): percentage of control activity = 100 × [1 − (I/(I + IC50))], where I is the inhibitor concentration, and IC50 is the inflection point on the curve.
(In general: Microsomes from liver hold many membrane-bound enzymes, among them those of drug oxidation.)

Another experiment addresses T2, UGT1A1 (Homo sapiens, UniProt P22309).
T2 construct: from tissue; host or cells: human liver microsomes
T2 sequence (P22309 26-533): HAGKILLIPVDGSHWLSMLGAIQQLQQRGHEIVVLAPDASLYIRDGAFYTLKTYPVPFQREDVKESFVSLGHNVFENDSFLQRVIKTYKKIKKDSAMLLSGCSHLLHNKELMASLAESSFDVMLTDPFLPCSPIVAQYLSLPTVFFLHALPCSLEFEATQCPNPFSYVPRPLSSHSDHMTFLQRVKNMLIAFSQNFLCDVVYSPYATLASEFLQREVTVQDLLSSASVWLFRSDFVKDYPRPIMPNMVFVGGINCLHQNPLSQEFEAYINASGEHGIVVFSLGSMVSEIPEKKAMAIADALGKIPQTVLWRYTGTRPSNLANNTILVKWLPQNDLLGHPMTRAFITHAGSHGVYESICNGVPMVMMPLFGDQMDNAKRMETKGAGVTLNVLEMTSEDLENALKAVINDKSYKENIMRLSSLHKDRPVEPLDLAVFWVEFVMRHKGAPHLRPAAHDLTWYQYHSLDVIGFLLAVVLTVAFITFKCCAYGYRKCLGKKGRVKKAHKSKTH
Nature of the experiment: UGT1A1 inhibition (SN-38 glucuronidation) in human liver microsomes, cocktail LC-MS/MS. The note with it: IC50 UGT isoform 1A1, HLMs 0.25 mg/mL with alamethicin, SN-38 0.5 μM. The method, then:
as §1, §2

Another experiment deals with T3, UGT1A6 (Homo sapiens, UniProt P19224).
T3 construct: from tissue; host or cells: human liver microsomes
T3 sequence (P19224 27-532): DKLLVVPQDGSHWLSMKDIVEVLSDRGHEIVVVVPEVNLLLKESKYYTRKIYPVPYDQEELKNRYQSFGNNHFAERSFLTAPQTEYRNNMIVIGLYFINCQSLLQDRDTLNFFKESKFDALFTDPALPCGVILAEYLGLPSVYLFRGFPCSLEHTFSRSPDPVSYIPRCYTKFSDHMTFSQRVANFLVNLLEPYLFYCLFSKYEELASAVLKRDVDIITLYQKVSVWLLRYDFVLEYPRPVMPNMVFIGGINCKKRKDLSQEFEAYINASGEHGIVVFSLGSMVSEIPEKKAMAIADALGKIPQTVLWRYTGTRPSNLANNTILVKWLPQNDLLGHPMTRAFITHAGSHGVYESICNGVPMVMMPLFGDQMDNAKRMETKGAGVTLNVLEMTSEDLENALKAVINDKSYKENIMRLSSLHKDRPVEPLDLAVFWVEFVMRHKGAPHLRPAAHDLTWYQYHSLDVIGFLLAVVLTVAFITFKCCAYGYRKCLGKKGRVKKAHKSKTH
Nature of the experiment: UGT1A6 inhibition (N-acetylserotonin glucuronidation) in human liver microsomes, cocktail LC-MS/MS. The method, then: as §1, §2

For `COc1ccc(C(=C2C=CC(=O)C=C2)c2c(-c3ccc(O)cc3)ccc(CO)c2C#Cc2ccc(O)cc2)cc1` [Selaginellin M], the 50% inhibitory concentration (IC50) (commonly the concentration that gives 50% inhibition) against UGT1A4 was determined as 3.9 µM; on UGT1A1, 1.3 µM; against UGT1A6, 36.5 µM.

On to `O=C1C=CC(=C(c2ccc(O)cc2)c2c(-c3ccc(O)cc3)ccc(CO)c2C#Cc2ccc(O)cc2)C=C1` [Selaginellin], for which the results for the IC50 on UGT1A4, against UGT1A1 and on UGT1A6 were 6.6 µM, 1 µM and 25.3 µM, respectively.

The values above are taken from article PMC6151550, “Inhibitory Effect of Selaginellins from Selaginella tamariscina (Beauv.) Spring against Cytochrome P450 and Uridine 5′-Diphosphoglucuronosyltransferase Isoforms on Human Liver Microsomes” (Molecules : A Journal of Synthetic Chemistry and Natural …, 2017).
